Like-named read-outs stand apart in the source and are kept apart here.
What was measured:
[1] = system: oxazolone-induced contact hypersensitivity; details: mouse; 6 mg/kg, sc; cited from earlier work
[2] = molecular target: α4β1 (Homo sapiens, UniProt P05556+P13612); details: cited from earlier work
[3] = system: heterotopic heart allograft; details: hyperlipidemic rabbit; cited from earlier work
[4] = molecular target: T1, α4β1 integrin receptor (Homo sapiens, UniProt P05556+P13612); assay: Ramos Cell Adhesion Assay (α4β1 Mediated Adhesion/VCAM-1); type: cell-based
T1 construct: Ramos Cell Adhesion Assay (α4β1 Mediated Adhesion/VCAM-1); endogenous in cells; host or cells: Ramos cells
Procedure, shortened: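 Plates coated overnight at 4° C with recombinant hVCAM-1 (4.0 μg/mL, pH 9.0), then blocked with PBS/1% BSA. Ramos cells labelled with 5 μM Calcein AM adhered 1 h at room temperature with compound; after washing, cells were lysed in SDS and fluorescence read at 485/530 nm.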

[5] = molecular target: T2, human α4β7 (Homo sapiens, UniProt P13612+P26010); assay: α4β7-K562 Cell Adhesion Assay (α4β7 Mediated Adhesion/VCAM-1); type: cell-based
T2 construct: expressed in transfected cells
T2 sequence (P13612 34-1032): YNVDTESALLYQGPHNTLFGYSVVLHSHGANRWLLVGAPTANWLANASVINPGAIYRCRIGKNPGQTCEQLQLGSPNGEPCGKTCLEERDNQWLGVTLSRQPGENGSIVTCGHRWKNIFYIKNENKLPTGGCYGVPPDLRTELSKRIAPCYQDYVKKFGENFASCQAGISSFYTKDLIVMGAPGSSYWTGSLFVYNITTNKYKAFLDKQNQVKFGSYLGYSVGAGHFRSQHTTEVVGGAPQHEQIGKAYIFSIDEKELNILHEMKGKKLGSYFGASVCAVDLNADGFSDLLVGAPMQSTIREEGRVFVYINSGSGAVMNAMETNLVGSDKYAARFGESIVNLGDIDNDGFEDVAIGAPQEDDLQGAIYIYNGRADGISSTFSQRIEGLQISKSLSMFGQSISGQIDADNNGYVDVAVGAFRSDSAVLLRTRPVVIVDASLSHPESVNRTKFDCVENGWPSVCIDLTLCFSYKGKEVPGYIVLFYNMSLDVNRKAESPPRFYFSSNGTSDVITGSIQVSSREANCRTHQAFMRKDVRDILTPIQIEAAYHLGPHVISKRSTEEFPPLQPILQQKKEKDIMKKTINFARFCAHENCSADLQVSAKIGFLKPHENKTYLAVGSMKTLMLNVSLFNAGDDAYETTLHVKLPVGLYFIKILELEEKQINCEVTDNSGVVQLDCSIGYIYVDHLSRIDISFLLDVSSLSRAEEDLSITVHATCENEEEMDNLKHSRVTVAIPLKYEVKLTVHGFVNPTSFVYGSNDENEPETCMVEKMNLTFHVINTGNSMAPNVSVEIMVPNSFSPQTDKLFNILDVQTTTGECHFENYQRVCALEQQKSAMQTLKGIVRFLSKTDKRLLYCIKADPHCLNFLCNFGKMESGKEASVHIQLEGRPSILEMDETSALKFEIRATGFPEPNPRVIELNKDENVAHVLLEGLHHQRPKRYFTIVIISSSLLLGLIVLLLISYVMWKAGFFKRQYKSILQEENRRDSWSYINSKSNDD
T2 sequence (P26010 20-798): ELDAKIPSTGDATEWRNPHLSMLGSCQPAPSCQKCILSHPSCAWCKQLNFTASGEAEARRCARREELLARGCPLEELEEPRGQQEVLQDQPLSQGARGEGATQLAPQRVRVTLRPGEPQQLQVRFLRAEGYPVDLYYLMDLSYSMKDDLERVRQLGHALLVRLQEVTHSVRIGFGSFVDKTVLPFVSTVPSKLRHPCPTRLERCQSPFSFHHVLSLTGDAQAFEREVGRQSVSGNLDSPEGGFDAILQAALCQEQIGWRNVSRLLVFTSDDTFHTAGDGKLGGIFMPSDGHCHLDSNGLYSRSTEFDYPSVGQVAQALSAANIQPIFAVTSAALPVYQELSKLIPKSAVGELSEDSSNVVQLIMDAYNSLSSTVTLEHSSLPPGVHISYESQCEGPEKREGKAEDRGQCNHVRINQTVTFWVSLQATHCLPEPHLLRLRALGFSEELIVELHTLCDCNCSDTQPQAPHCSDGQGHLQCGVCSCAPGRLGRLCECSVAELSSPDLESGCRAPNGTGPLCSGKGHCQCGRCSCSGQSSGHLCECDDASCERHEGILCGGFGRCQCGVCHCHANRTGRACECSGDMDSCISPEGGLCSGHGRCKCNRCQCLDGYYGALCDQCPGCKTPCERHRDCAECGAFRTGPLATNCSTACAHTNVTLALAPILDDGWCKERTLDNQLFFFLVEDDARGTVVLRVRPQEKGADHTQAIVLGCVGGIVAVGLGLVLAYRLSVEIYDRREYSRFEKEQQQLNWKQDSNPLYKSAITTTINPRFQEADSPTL
Procedure, shortened: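 K562 cells stably expressing human α4β7, labelled with 5 μM Calcein AM, adhered for 1 h at room temperature to plates coated with recombinant hVCAM-1 (4.0 μg/mL) in the presence of compound. After washing, cells were lysed in Tris/SDS. Bound cells were read by fluorescence at 485/530 nm.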

[6] = Table III, μM, read-out: Inhibition of Binding of Ramos Cells to Immobilized VCAM-1 IC50
[7] = Table IV, μM, read-out: Inhibition of Binding of K562 Cells to Immobilized VCAM-1 IC50
[8] = Table III, read-out: Inhibition of Binding of Ramos Cells to Immobilized VCAM-1 IC50
[9] = Table I, racemic mixtures and resolved (S,S) and (R,S) diastereomers, read-out: Antagonist IC50 Activity α4β1
[10] = Table I, racemic mixtures and resolved (S,S) and (R,S) diastereomers, read-out: Antagonist IC50 Activity α4β7
[11] = Table IV, read-out: Inhibition of Binding of K562 Cells to Immobilized VCAM-1 IC50

T1 sequence (P05556 21-798, one chain of several): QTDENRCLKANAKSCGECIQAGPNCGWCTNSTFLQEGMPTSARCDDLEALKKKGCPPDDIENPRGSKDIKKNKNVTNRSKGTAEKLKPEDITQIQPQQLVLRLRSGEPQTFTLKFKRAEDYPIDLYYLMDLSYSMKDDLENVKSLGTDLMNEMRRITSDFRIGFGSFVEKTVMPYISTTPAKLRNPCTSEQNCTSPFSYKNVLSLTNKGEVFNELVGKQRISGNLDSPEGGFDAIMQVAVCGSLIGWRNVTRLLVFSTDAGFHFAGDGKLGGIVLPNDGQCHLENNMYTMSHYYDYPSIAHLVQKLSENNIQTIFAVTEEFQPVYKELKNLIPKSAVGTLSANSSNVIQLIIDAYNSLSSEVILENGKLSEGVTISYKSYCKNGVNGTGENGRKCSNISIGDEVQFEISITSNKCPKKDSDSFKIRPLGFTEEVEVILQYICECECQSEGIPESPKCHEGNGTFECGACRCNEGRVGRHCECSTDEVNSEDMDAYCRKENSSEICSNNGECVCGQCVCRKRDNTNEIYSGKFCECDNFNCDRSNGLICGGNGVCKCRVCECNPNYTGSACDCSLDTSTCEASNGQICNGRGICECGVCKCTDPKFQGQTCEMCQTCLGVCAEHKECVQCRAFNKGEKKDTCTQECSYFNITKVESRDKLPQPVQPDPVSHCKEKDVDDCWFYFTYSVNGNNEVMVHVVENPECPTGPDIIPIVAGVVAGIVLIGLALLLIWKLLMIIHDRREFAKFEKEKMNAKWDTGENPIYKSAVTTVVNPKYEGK
Chain of α4β1 (P05556 21-798, one chain of several): as above

Row | Molecule | IC50 [4, 6] | IC50 [5, 7] | IC50 [4, 8] | IC50 [5, 11] | also measured
1 | Phenylacetyl-Leu-Asp-Phe-D-Pro-NH2 |  |  |  |  | efficacy in oxazolone-induced contact hypersensitivity [1]: efficacy similar to the α4 antibody PS/2; IC50 [2]: 2000 nM; efficacy in heterotopic heart allograft model [3]: effective
2 | CN(C(=O)C1C2CCC(CC2)N1S(=O)(=O)c1ccccc1)[C@@H](Cc1ccc(OCc2c(Cl)cccc2Cl)cc1)C(=O)O (some centres unmarked) [Cpd 38, O-[(2,6-dichlorophenyl)methyl]-methyl-N-[[2-(phenylsulfonyl)-2-azabicyclo[2.2.2]oct-3-yl]carbonyl]tyrosine] | > 5 µM | > 10 µM |  |  | 
3 | CC(C)N(C(=O)Oc1ccc(C[C@H](NC(=O)C2C3CCC(CC3)N2S(=O)(=O)c2ccccc2)C(=O)O)cc1)C(C)C (stereo partly drawn) [Cpd 57, O-[[bis(1-methylethyl)amino]carbonyl]-N-[[2-(phenylsulfonyl)-2-azabicyclo[2.2.2]oct-3-yl]carbonyl]-L-tyrosine] |  | > 5 µM | 0.757 µM |  | 
4 | O=C(N[C@@H](Cc1ccc(N2C(=O)c3ccccc3C2=O)cc1)C(=O)O)C1C2CCC(CC2)N1S(=O)(=O)c1ccccc1 (mixture of isomers) [Cpd 47, 4-(1,3-dihydro-1,3-dioxo-2H-isoindol-2-yl)-N-[[2-(phenylsulfonyl)-2-azabicyclo[2.2.2]oct-3-yl]carbonyl]-L-phenylalanine] |  |  | 0.074 µM |  | IC50 [4, 9]: 0.074 µM; IC50 [5, 10]: 0.083 µM
5 | O=C(O)[C@H](Cc1ccc(NC(=O)[C@@H]2C3CCC(CC3)N2S(=O)(=O)c2ccccc2)cc1)NC(=O)[C@@H]1C2CCC(CC2)N1S(=O)(=O)c1ccccc1 [Cpd 70, 4-[[[(3S)-2-(phenylsulfonyl)-2-azabicyclo[2.2.2]oct-3-yl]carbonyl]amino]-N-[[(3S)-2-(phenylsulfonyl)-2-azabicyclo[2.2.2]oct-3-yl]carbonyl]-L-phenylalanine] |  |  | 0.37 µM | 2.03 µM | 
6 | COc1cccc(OC)c1-c1ccc(C[C@H](NC(=O)C2C3CCC(CC3)N2S(=O)(=O)c2ccc(C)cc2)C(=O)O)cc1 (mixture of isomers) [Cpd 18, 4-(2,6-dimethoxyphenyl)-N-[[2-[(4-methylphenyl)sulfonyl]-2-azabicyclo[2.2.2]oct-3-yl]carbonyl]-L-phenylalanine] |  |  | 0.124 µM |  | IC50 [4, 9]: 0.124 µM; IC50 [5, 10]: 0.21 µM
7 | O=C(Nc1ccc(C[C@H](NC(=O)C2C3C=CC(CC3)N2S(=O)(=O)c2ccccc2)C(=O)O)cc1)c1c(Cl)cccc1Cl (stereo partly drawn) [Cpd 42, 4-[(2,6-dichlorobenzoyl)amino]-N-[[2-(phenylsulfonyl)-2-azabicyclo[2.2.2]oct-5-en-3-yl]carbonyl]-L-phenylalanine] |  |  | 0.022 µM | 0.279 µM | 
8 | Cc1ccc(S(=O)(=O)N2C3CCC(CC3)C2C(=O)N[C@@H](Cc2ccc(NC(=O)Cc3c(Cl)cccc3Cl)cc2)C(=O)O)cc1 (stereo partly drawn) [Cpd 27, 4-[[(2,6-dichlorophenyl)acetyl]amino]-N-[[2-[(4-methylphenyl)sulfonyl]-2-azabicyclo[2.2.2]oct-3-yl]carbonyl]-L-phenylalanine] |  | > 10 µM | 1.09 µM |  | 
9 | O=C(Nc1ccc(C[C@H](NC(=O)C2C3CCC(CC3)N2S(=O)(=O)c2ccccc2)C(=O)O)cc1)Nc1c(F)cccc1F (stereo partly drawn) [Cpd 34, 4-[[[(2,6-difluorophenyl)amino]carbonyl]amino]-N-[[2-(phenylsulfonyl)-2-azabicyclo[2.2.2]oct-3-yl]carbonyl]-L-phenylalanine] | > 5 µM | > 10 µM |  |  | 
10 | Cc1ccc(S(=O)(=O)N2C3CCC(CC3)C2C(=O)N[C@@H](Cc2ccc(NC(=O)c3ccccc3C(F)(F)F)cc2)C(=O)O)cc1 (stereo partly drawn) [Cpd 12, 4-[[2-(trifluoromethyl)benzoyl]amino]-N-[[2-[(4-methylphenyl)sulfonyl]-2-azabicyclo[2.2.2]oct-3-yl]carbonyl]-L-phenylalanine] |  |  | 0.104 µM | 1.08 µM | 
11 | O=C(Nc1ccc(C[C@H](NC(=O)C2C3CCC(CC3)N2S(=O)(=O)c2ccccc2)C(=O)O)cc1)c1c(F)cccc1F (stereo partly drawn) [Cpd 15, 4-[(2,6-difluorobenzoyl)amino]-N-[[2-(phenylsulfonyl)-2-azabicyclo[2.2.2]oct-3-yl]carbonyl]-L-phenylalanine] |  |  | 0.067 µM | 1.39 µM | 
12 | Cc1ccc(S(=O)(=O)N2C3CCC(CC3)C2C(=O)N[C@@H](Cc2ccc(-c3ccccc3)cc2)C(=O)O)cc1 (stereo partly drawn) [Cpd 33, 4-phenyl-N-[[2-[(4-methylphenyl)sulfonyl]-2-azabicyclo[2.2.2]oct-3-yl]carbonyl]l-L-phenylalanine] | > 5 µM | > 10 µM |  |  | 
13 | Cc1ccc(S(=O)(=O)N2C3CCC(CC3)C2C(=O)N[C@@H](Cc2ccc(OCc3ccccc3)cc2)C(=O)O)cc1 (stereo partly drawn) [Cpd 30, 4-(phenylmethoxy)-N-[[2-[(4-methylphenyl)sulfonyl]-2-azabicyclo[2.2.2]oct-3-yl]carbonyl]-L-phenylalanine] | > 5 µM | > 10 µM |  |  | 
14 | COc1cccc(OC)c1C(=O)Nc1ccc(C[C@H](NC(=O)C2C3CCC(CC3)N2S(=O)(=O)c2ccc(C)cc2)C(=O)O)cc1 (stereo partly drawn) [Cpd 3, 4-[(2,6-dimethoxybenzoyl)amino]-N-[[2-[(4-methylphenyl)sulfonyl]-2-azabicyclo[2.2.2]oct-3-yl]carbonyl]-L-phenylalanine] |  |  | 0.05 µM | 1.94 µM | 
15 | CC(C)C(=O)Nc1ccc(C[C@H](NC(=O)[C@@H]2C3CCC(CC3)N2S(=O)(=O)c2ccccc2)C(=O)O)cc1 [Cpd 69, 4-[(2-methyl-1-oxopropyl)amino]-N-[[(3S)-2-(phenylsulfonyl)-2-azabicyclo[2.2.2]oct-3-yl]carbonyl]-L-phenylalanine] |  |  | 0.455 µM | 1.67 µM | 
16 | O=C(O)C(Cc1ccc(OCc2c(Cl)cccc2Cl)c(F)c1)NC(=O)C1C2CCC(CC2)N1S(=O)(=O)c1ccccc1 (centres unmarked) [Cpd 62] | > 5 µM | > 10 µM |  |  | 

Reference: patent US6960597B2, “Aza-bridged-bicyclic amino acid derivatives as α4 integrin antagonists” (Orth-McNeil Pharmaceutical, Inc., priority 2000, dated 2005)
